The record followed here is US20240165272A1, “Liver-targeted fluorescence/photoacoustic dual-modal probe for early detecting drug-induced hepatic inflammation and autoimmune hepatitis” (BEIJING UNIVERSITY OF TECHNOLOGY, priority 2022, published 2024).

For series [1], the system named is HepG2 cells. The series can be described thus: Fluorescence imaging of endogenous O2·^− in HepG2 cells. The series is classed as cell-based. The protocol:
To evaluate the capacity of hCy-Tf-CA to image O2·^− fluctuation in living cells, HepG2 cells were plated in a glass-bottom dish for 24 h to 80% density before the experiment. Cell fluorescence imaging of hCy-Tf-CA was divided into five groups. In the first group, hCy-Tf-CA (10 μM) was incubated with cells for 30 min. In the second group, cells were pretreated with lipopolysaccharide (LPS, 1 μg/mL) and interferon-gamma (IFN-γ, 50 ng/mL) for 12 h, then washed twice with PBS buffer before incubating with hCy-Tf-CA (10 μM) for 30 min. In the third group, cells were pretreated with LPS (1 μg/mL), IFN-γ (50 ng/mL) and 2,2,6,6-tetramethylpiperidine-N-oxyl (TEMPO, 300 μM) for 12 h, then washed twice with PBS buffer before incubating with hCy-Tf-CA (10 μM) for 30 min. In the fourth and fifth groups, cells were pretreated with H2O2 or Na2SO3 (100 μM) for 30 min, then washed twice with PBS buffer before incubating with hCy-Tf-CA (10 μM) for 30 min. The cells were washed 3 times with PBS buffer before cell imaging. Fluorescence images of the cells were captured by a Nikon AX R microscope with DAPI channel (λex'404 nm, λem=425-475 nm) and Cy5.5 channel (λex=639 nm, λem=663-738).

For series [2], the system named is HepG2 cells. Put plainly: Biocompatibility study, CCK-8 assay. The series is classed as cell-based. The following applies: 24 h exposure to 10 μM. The protocol: Inspired by the excellent responsiveness of the probe hCy-Tf-CA to O2·^−, its biocompatibility and potential for further applications in living cells were assessed. HepG2 cells were plated in a 96-well plates at […] and incubated overnight in the cell incubator. Then the cells were washed with culture medium and incubated with various concentrations of hCy-Tf-CA (1, 2, 4, 8, 10 μM) at 37° C. for 24 h. After removing the above solution, CCK-8 reagent diluted with culture medium was added to each well and incubated at 37° C. for 60 min. Finally, the absorbance was finally measured at 450 nm by a microplate reader. Cell viability was calculated using the following formula:
Calculation of cell viability: Cell viability (%)=(Aexperimental group−Ablank group)/(Acontrol group−Ablank group)×100%.
On the technique in general: Tetrazolium dyes change colour on reduction, which living cells bring about.

Series [3] can be described thus: Selective response: fluorescence against potential interferents. The following applies: probe 10 μM. The protocol: The specificity of hCy-Tf-CA was determined against various potential interferents (Na^+, K^+, Ca^2+, Mg^2+, Zn^2+, Cu^2+, HS^−, HClO, H2O2, ·OH, ONOO^−, glucose, glutathione, cysteine, vitamin C, nitroreductase, alkaline phosphatase, β-galactosidase and leucine aminopeptidase). Under the same experimental conditions, 10 μL of probe stock solution (1 mM) was added to 1 mL of ethanol-phosphate buffer solution. Then stock solutions of various potential interferents were respectively added to above solution, then the fluorescence intensity at 730 nm was tested. […] Therefore, these potential interferents barely effect on the selective response to O2·^−, implying that the probe hCy-Tf-CA prepared by the invention has good selectivity.

Series [4] has as its system mouse model of drug-induced hepatic inflammation. The series can be described thus: Fluorescence/photoacoustic dual-modal imaging of drug-induced (APAP) hepatic inflammation. It counts as in vivo, Balb/c female mice. The protocol: In order to visually detect hepatic O2·^− concentration and drug-induced hepatic inflammation by fluorescence/photoacoustic dual-modal imaging, Balb/c female mice were intraperitoneally injected with overdose of APAP (300 mg/Kg) to cause drug-induced hepatic inflammation, and PBS injected mice served as the control group. The probe hCy-Tf-CA (50 μM, 100 μL) were administrated intravenously for in vivo fluorescence/photoacoustic dual-modal imaging. Images at predetermined time points were recorded on IVIS imaging system (Perkin Elmer, λex=675 nm, λem=760 nm) and InVision 256-TF imaging system (iThera Medical, λex=710 nm).

Series [5] is described as follows: Photoacoustic response of hCy-Tf-CA to O2·^−. The settings on record: probe 10 μM, O2·^− 100 μM, 10 min. The procedure:
(§1) 10 μL of probe stock solution (1 mM) was added to 1 mL of ethanol-phosphate buffer solution (ethanol/PBS=1/1, v/v, pH=7.4). To characterize the responsiveness of hCy-Tf-CA, 40 μL O2·^− stock solution (2.5 mM) was added to above solution.
The reaction system was prepared under the same experimental conditions. […] The photoacoustic signal of hCy-Tf-CA only at 710 nm is very weak (FIG. 3).
Under the same experimental conditions, 10 μL of probe stock solution (1 mM) was added to 1 mL of ethanol-phosphate buffer solution, the O2·^− titration experiment then was carried out and the photoacoustic intensity at 710 nm were tested 10 minutes later.

The nature of series [6]: Fluorescence response of hCy-Tf-CA to O2·^− in ethanol-phosphate buffer. The procedure: as §1
The reaction system was prepared under the same experimental conditions. […] That is due to the nucleophilic O2·^− cleavage of trifluoromethonium sulfonate, which restored the strong electron-donating phenol and it-conjugation on the fluorophore. […] The probe hCy-Tf-CA is an enhanced fluorescence probe.
Under the same experimental conditions, 10 μL of probe stock solution (1 mM) was added to 1 mL of ethanol-phosphate buffer solution, the O2·^− titration experiment was then carried out. The fluorescence intensity at 730 nm were tested 10 minutes later. […] (FIGS. 4 and 5).

For series [7], the system named is mouse model of autoimmune hepatitis. The series can be described thus: Fluorescence/photoacoustic dual-modal imaging of autoimmune hepatitis (Con A). It counts as in vivo, Balb/c female mice. The procedure: In order to visually detect autoimmune hepatitis by fluorescence/photoacoustic dual-modal imaging, Balb/c female mice were intravenously injected with a single dose Con A (20 mg/Kg, dissolved in 100 μL PBS) for 2 h to induce early autoimmune hepatitis, and the remaining mice were treated with PBS solution as controls. hCy-Tf-CA was then intravenously injected into mice for in vivo imaging, and representative NIRF/PA dual-modal images of different treated mice were recorded at chosen times. Images at predetermined time points were recorded on IVIS imaging system (Perkin Elmer, λex=675 nm, λem=760 nm) and InVision 256-TF imaging system (iThera Medical, λex=710 nm).

On to `C[C@H](CCC(=O)NCCC[N+]1=C(/C=C/C2=C3Oc4cc(OS(=O)(=O)C(F)(F)F)c(Cl)cc4C=C3CCC2)C(C)(C)c2c1ccc1ccccc21)[C@H]1CC[C@H]2[C@@H]3[C@H](O)C[C@@H]4C[C@H](O)CC[C@]4(C)[C@H]3C[C@H](O)[C@]12C` [hCy-Tf-CA], for which the “intracellular fluorescence after LPS/IFN-γ in the presence of TEMPO” value in series [1] (HepG2, LPS/IFN-γ plus TEMPO 300 μM for 12 h, probe 10 μM 30 min) is “largely suppressed”. The “intracellular fluorescence, normal conditions” value in series [1] (HepG2, probe 10 μM, 30 min, no pretreatment) is on record as “weak fluorescence”. The “fluorescence fluctuations in H2O2-treated or SO3^2−-treated cells” value in series [1] (HepG2 pretreated with H2O2 or Na2SO3 100 μM for 30 min, probe 10 μM 30 min) is “negligible”. The “intracellular fluorescence intensity after LPS/IFN-γ” value in series [1] (HepG2 pretreated with LPS 1 μg/mL and IFN-γ 50 ng/mL for 12 h, probe 10 μM 30 min) is “significantly increased”. In series [2], the cell viability entry is “more than 90%”. Further, the “fluorescence response to O2·^− in the selectivity test” value in series [3] (730 nm) is recorded as “significant response”. Also, the “fluorescence response at 730 nm to potential interferents” value in series [3] (analytes 100 μM, enzyme 0.1 U·mL^−1) is reported as “barely respond”. Further, the “ex vivo hepatic fluorescence signal, APAP-treated mice versus health mice” value in series [4] (2 h after intravenous administration) is on record as “obviously higher”. Also, the “ex vivo organ distribution of fluorescence signal” value in series [4] (2 h after intravenous administration, liver versus heart, spleen, lung and kidney) was “mainly located in the liver”. Also, in series [4] (2 h post-injection, probe 50 μM 100 μL i.v., APAP 300 mg/Kg i.p.), the “in vivo fluorescence signal intensity, APAP-treated mice versus control mice” value is reported as “significantly higher”. Moreover, in series [4] (λex=710 nm, cross-sectional images), the “photoacoustic signal in the liver, APAP-treated mice versus healthy mice” value is recorded as “significantly higher”. Further, the “photoacoustic signal enhancement at 710 nm after treatment with O2·^−” value in series [5] is on record as 7 fold. Also, the “O2·^− concentration at which fluorescence intensity reached a plateau” value in series [6] (probe 10 μM, 10 min, at 740 nm as printed) turned out to be 100 µM. In series [6] (probe 10 μM, O2·^− 100 μM, 10 min, λex=680 nm, ethanol/PBS=1/1, pH=7.4), the “fluorescence intensity at 730 nm increase compared with probe alone” value was 17 fold. Moreover, in series [6] (summary statement), the “fluorescence intensity increase after reaction with O2·^−” value came out at 17 times. Also, in series [7] (Con A 20 mg/Kg i.v. for 2 h, probe i.v.), the “in vivo fluorescence signal intensity in the liver region of Con A-treated mice over time” value is “gradually enhanced”. Moreover, the “rate of increase of hepatic photoacoustic signal, Con A-treated mice versus control mice” value in series [7] (after injection of probe) is reported as “increased faster”. Besides, in series [7] (at 2 h, λex=710 nm), the “photoacoustic signal in the liver, Con A-treated mice versus healthy mice” value is on record as “obviously higher”. Besides, in series [7] (both groups (Con A-treated and control)), the “location of fluorescence signals (ex vivo)” value is on record as “mainly located in the liver”. Further, in series [7] (mouse, in vivo), the “ex vivo fluorescence signals, Con A-treated mice versus control mice” value was “apparently brighter”.
